For one compound, Km results are on record in publication PMC11094777, “Mutational and structural studies of (βα)8‐barrel fold methylene‐tetrahydropterin reductases utilizing a common catalytic mechanism” (Protein Science : A Publication of the Protein Society, 2024).

Like-named read-outs stand apart in the source and are kept apart here.

Holding throughout (assay): F420H2 oxidation followed at […] nm, anaerobic
Common to all, as to type: biochemical

The target in assay [1] is T1, jMer (F420-dependent methylene-H4MPT reductase from Methanocaldococcus jannaschii) (Methanocaldococcus jannaschii, UniProt Q58929).
T1 construct: gene mer; pT7-7_jMer in E. coli ArcticExpress (DE3); no tag mentioned; heat step and column purification; homodimer ~80 kDa
T1 sequence (Q58929 whole entry): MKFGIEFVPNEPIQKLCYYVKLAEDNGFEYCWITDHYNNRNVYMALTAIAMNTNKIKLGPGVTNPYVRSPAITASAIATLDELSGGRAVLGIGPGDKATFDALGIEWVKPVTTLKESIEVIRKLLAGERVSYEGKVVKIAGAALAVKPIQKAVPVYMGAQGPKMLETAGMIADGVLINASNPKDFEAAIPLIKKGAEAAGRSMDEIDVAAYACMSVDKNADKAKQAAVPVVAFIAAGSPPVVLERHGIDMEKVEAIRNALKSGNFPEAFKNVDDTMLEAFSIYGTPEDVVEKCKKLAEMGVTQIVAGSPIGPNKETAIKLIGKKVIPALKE
The settings on record: 20 μM F420H2, 100 mM Tris/HCl pH 8.0, 55°C; read-out: App. K m.

In assay [2] the target is T1, jMer (F420-dependent methylene-H4MPT reductase from Methanocaldococcus jannaschii). The settings on record: 20 μM F420H2, 100 mM Tris/HCl pH 8.0, 55°C; methylene-H4MPT made in situ from H4MPT and 15 mM formaldehyde; read-out: App. K m.
In assay [3] the target is T2, jMer (F420-dependent methylene-H4MPT reductase from Methanocaldococcus jannaschii) (Methanocaldococcus jannaschii, UniProt Q58929, E6Q, form not given).
T2 construct: gene mer; pT7-7_jMer in E. coli ArcticExpress (DE3); no tag mentioned; heat step and column purification; homodimer ~80 kDa
T2 sequence (Q58929 whole entry E6Q, form open): as the sequence (Q58929 whole entry) above, with E6Q counted along it
The settings on record: 20 μM F420H2, 100 mM Tris/HCl pH 8.0, 55°C; read-out: App. K m.

Assay [4] concerns the target T3, jMer (F420-dependent methylene-H4MPT reductase from Methanocaldococcus jannaschii) (Methanocaldococcus jannaschii, UniProt Q58929, D96N, form not given).
T3 construct: gene mer; pT7-7_jMer in E. coli ArcticExpress (DE3); no tag mentioned; heat step and column purification; homodimer ~80 kDa
The settings on record: 20 μM F420H2, 100 mM Tris/HCl pH 8.0, 55°C; read-out: App. K m.

T3 sequence (Q58929 whole entry D96N, form open): as the sequence (Q58929 whole entry) above, with D96N counted along it

Take `C[C@@H]1Nc2nc(N)[nH]c(=O)c2N2CN(c3ccc(C[C@H](O)[C@H](O)[C@H](O)CO[C@H]4O[C@H](COP(=O)(O)O[C@@H](CCC(=O)O)C(=O)O)[C@@H](O)[C@H]4O)cc3)[C@H](C)[C@@H]12` [Methylene‐H4MPT]: the Km in assay [1] turned out to be 20 ± 5 µM; in assay [2] it was 58 ± 29.7 µM; in assay [3] it was 34 ± 10 µM; in assay [4], 140 ± 30 µM.
